ChEMBL document CHEMBL5303765, “Data for DCP probe BAY-7081” (2023)

Key:
[1] = target: T1, Serine/threonine-protein kinase haspin (Homo sapiens) (UniProt Q8TF76); test: GSG2 SGC Tm panel (DSF); conditions: for ΔTm: Compound concentration 10.0 uM
T1 sequence (whole entry): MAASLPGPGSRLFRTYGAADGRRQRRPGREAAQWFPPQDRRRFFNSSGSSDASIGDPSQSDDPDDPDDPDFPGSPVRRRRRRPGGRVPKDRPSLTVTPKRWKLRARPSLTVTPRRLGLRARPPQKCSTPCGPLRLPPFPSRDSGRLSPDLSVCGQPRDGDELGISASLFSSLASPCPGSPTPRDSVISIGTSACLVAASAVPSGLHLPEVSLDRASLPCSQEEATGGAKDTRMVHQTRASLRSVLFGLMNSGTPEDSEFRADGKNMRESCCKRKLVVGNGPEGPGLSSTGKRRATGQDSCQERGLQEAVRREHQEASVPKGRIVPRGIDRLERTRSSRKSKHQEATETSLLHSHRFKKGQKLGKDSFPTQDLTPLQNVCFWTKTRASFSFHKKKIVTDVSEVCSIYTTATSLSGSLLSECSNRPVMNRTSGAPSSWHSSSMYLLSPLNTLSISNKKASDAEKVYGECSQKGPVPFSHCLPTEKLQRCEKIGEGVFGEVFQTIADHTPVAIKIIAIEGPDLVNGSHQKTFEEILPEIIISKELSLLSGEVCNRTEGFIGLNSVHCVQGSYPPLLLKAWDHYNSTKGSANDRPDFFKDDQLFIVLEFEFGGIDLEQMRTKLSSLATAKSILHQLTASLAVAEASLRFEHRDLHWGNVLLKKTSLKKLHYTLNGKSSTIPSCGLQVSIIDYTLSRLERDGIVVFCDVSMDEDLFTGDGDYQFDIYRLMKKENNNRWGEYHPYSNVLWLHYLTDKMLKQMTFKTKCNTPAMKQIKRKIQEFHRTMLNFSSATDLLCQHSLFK

[2] = target: T2, Alpha-2B adrenergic receptor (Homo sapiens) (UniProt P18089); conditions: Compound concentration 10.0 uM
T2 sequence (whole entry): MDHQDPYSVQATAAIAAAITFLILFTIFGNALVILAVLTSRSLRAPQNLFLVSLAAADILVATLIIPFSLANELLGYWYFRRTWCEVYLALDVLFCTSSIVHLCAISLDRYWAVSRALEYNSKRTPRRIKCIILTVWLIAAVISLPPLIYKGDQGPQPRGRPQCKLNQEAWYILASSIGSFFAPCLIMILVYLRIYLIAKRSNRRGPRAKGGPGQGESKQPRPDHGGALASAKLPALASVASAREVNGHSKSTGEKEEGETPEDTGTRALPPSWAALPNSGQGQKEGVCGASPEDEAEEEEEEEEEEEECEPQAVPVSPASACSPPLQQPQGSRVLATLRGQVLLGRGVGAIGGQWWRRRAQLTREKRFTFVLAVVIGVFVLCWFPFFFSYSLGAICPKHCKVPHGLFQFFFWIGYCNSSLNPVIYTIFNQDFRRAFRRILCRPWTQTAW

[3] = target: Serine/threonine-protein kinase 26 (Homo sapiens) (UniProt Q9P289); test: MST4 SGC Tm panel (DSF); conditions: for ΔTm: Compound concentration 10.0 uM
Chain of Serine/threonine-protein kinase 26 (Homo sapiens) (Q9P289 2-416 limits assumed): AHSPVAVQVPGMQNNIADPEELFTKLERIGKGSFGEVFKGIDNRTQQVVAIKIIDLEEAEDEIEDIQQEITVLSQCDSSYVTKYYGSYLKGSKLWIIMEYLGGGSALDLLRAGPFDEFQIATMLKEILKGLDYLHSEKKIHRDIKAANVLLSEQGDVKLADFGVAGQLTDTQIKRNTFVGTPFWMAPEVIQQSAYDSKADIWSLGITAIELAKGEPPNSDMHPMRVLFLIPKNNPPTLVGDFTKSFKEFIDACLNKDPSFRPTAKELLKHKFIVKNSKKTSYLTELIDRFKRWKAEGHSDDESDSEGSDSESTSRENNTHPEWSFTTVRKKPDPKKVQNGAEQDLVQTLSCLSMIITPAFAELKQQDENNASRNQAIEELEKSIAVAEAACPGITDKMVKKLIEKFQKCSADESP

[4] = target: Fibroblast growth factor receptor 1 (Homo sapiens) (UniProt P11362); test: FGFR1 SGC Tm panel (DSF); conditions: for ΔTm: Compound concentration 10.0 uM
Chain of Fibroblast growth factor receptor 1 (Homo sapiens) (P11362 22-822 limits assumed): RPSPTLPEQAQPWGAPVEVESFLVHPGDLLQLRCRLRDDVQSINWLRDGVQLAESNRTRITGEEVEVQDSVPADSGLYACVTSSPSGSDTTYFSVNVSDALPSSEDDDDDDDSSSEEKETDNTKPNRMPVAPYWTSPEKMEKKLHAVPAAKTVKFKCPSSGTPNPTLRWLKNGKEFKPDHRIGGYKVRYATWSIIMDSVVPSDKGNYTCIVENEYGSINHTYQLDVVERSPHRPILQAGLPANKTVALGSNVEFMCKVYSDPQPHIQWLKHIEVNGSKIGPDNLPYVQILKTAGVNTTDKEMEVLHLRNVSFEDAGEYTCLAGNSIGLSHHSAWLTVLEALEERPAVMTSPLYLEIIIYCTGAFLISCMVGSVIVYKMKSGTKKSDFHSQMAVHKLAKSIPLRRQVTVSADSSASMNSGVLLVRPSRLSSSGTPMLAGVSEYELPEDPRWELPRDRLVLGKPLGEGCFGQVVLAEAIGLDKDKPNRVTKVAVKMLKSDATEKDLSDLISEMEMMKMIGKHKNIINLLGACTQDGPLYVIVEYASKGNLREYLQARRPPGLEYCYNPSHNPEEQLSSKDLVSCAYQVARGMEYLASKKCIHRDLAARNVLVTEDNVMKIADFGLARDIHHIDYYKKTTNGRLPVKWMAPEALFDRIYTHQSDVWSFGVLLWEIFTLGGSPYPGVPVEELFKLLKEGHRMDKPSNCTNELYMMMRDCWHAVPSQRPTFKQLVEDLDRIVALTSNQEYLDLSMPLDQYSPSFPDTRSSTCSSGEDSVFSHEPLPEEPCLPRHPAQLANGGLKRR

[5] = target: Serine/threonine-protein kinase Chk2 (Homo sapiens) (UniProt O96017); test: CHEK2 SGC Tm panel (DSF); conditions: for ΔTm: Compound concentration 10.0 uM
Chain of Serine/threonine-protein kinase Chk2 (Homo sapiens) (O96017 whole entry): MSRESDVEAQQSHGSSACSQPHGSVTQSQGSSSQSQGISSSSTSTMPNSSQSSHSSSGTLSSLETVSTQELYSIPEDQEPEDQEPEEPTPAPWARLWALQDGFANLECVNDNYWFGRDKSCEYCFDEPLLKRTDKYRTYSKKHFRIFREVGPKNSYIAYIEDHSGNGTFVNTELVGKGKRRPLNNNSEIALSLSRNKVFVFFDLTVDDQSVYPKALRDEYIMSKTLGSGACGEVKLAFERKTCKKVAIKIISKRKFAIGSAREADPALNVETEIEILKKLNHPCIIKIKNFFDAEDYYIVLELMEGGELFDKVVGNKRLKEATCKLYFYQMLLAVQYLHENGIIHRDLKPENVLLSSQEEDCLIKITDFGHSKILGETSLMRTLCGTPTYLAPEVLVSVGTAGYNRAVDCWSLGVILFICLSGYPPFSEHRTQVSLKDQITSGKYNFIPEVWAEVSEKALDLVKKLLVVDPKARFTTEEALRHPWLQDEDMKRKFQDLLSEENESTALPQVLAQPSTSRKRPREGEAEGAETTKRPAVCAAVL

[6] = target: Dual specificity protein kinase CLK3 (Homo sapiens) (UniProt P49761); test: CLK3 SGC Tm panel (DSF); conditions: for ΔTm: Compound concentration 10.0 uM
Chain of Dual specificity protein kinase CLK3 (Homo sapiens) (P49761 whole entry, looked up): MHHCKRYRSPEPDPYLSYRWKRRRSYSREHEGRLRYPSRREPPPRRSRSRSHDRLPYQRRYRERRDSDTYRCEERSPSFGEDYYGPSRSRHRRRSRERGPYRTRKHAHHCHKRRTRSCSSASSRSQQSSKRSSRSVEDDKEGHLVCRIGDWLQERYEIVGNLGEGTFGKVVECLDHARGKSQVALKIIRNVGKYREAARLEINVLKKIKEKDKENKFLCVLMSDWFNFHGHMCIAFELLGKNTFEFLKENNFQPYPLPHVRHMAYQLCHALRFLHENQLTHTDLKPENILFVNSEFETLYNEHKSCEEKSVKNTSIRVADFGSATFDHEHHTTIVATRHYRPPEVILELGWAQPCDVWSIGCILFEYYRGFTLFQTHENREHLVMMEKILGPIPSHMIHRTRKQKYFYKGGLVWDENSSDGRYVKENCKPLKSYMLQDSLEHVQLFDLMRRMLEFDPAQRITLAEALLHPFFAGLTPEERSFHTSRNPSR

[7] = target: Mitogen-activated protein kinase 10 (Homo sapiens) (UniProt P53779); test: MAPK10 SGC Tm panel (DSF); conditions: for ΔTm: Compound concentration 10.0 uM
Chain of Mitogen-activated protein kinase 10 (Homo sapiens) (P53779 whole entry): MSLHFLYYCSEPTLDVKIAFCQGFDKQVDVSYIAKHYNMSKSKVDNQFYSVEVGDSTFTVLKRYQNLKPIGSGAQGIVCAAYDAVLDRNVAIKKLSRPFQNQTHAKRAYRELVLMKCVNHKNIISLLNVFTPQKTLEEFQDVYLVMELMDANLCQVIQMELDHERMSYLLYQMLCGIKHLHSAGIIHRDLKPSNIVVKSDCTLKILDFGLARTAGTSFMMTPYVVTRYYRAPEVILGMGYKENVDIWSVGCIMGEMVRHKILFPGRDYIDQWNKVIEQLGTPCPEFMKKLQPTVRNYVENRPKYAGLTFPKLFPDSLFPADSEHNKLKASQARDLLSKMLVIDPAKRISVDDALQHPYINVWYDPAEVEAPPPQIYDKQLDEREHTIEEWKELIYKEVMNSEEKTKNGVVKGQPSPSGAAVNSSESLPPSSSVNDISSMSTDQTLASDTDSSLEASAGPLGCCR

[8] = target: T3, Peripheral plasma membrane protein CASK (Homo sapiens) (UniProt O14936); test: CASK SGC Tm panel (DSF); conditions: for ΔTm: Compound concentration 10.0 uM
T3 sequence (whole entry): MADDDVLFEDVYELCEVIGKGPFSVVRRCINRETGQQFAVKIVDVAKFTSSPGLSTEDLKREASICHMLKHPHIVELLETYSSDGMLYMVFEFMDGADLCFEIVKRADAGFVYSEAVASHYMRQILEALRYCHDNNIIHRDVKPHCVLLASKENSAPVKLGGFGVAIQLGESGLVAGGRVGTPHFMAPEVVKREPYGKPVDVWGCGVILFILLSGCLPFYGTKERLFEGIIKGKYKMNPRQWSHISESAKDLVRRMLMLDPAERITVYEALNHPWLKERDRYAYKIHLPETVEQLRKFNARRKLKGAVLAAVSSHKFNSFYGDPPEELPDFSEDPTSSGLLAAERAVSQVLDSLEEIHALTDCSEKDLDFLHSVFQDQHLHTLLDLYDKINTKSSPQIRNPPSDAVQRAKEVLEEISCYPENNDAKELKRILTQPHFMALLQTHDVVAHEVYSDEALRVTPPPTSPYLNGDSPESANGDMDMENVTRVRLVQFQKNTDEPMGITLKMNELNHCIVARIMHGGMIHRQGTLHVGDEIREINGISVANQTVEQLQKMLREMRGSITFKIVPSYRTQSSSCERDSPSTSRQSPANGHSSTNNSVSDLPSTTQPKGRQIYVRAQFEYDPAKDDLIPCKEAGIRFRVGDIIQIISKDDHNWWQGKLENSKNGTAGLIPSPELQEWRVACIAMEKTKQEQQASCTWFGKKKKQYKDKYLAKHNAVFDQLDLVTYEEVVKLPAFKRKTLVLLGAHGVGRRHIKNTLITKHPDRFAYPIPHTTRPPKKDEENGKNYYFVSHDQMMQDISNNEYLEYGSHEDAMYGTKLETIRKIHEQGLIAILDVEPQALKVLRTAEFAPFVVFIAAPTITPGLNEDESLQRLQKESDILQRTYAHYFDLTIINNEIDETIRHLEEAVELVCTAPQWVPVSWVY

Mu-type opioid receptor = Mu-type opioid receptor (Homo sapiens, UniProt P35372); conditions: Compound concentration 10.0 uM
Chain of Mu-type opioid receptor (P35372 whole entry): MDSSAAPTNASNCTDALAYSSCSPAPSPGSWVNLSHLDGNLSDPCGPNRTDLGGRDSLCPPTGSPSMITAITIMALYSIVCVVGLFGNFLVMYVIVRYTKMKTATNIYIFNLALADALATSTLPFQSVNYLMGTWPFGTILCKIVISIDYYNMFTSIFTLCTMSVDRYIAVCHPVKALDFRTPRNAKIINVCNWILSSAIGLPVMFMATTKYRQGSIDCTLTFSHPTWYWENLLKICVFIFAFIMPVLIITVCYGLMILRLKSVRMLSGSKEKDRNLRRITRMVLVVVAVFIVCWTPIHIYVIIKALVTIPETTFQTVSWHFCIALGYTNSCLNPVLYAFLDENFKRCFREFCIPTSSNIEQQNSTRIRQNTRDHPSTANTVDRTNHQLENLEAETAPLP

| Compound | delta Tm Staurosporine positive control [1] | ΔTm [1] | inhibition [2] [%] | delta Tm Staurosporine positive control [3] | ΔTm [3] | delta Tm Staurosporine positive control [4] | ΔTm [4] | delta Tm Staurosporine positive control [5] | ΔTm [5] | delta Tm Staurosporine positive control [6] | ΔTm [6] | delta Tm Staurosporine positive control [7] | ΔTm [7] | delta Tm Staurosporine positive control [8] | ΔTm [8] | inhibition (Mu-type opioid receptor) [%] |
| --- | --- | --- | --- | --- | --- | --- | --- | --- | --- | --- | --- | --- | --- | --- | --- | --- |
| CCC[C@H]1CNCc2c1[nH]c(=O)c(C#N)c2N1CCC2(CC1)CC2 | 8.53 | -0.0501 | 4.16 | 6.5 | -1.58 | 5.57 | -0.133 | 17.8 | 3.11 | 5.3 | -0.402 | 6.75 | -0.509 | 4.28 | -0.242 | 26.2 |
| CCC[C@@H]1CNCc2c1[nH]c(=O)c(C#N)c2N1CCC2(CC1)CC2 | 8.53 | -0.64 | 16.9 | 6.5 | -1.81 | 5.57 | -0.198 | 17.8 | -0.386 | 5.3 | -0.379 | 6.75 | -0.405 | 4.28 | -0.0745 | 57.9 |
